Measurements published in US6964983B2, “Compounds that modulate PPAR activity and methods for their preparation” (Warner-Lambert Company, LLC, priority 2002, dated 2005).
Read-outs that look alike come from different tables or passages of the source.

Assays:
[1] = biological target: T1, hPPARβ (Homo sapiens, UniProt Q03181); assay: Transient transfection assay in HepG2 cells, Gal4-hPPARβ chimeric receptor, luciferase reporter; format: cell-based
T1 sequence (Q03181 171-441 limits assumed): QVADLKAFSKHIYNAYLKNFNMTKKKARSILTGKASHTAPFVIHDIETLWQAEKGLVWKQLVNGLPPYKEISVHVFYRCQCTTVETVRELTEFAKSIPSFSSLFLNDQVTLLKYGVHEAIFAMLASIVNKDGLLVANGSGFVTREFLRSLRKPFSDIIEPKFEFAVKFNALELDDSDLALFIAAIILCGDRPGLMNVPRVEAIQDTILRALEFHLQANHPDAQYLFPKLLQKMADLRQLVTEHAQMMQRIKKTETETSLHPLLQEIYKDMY
Description: 1. Test A. Transient Transfections Assay using the HepG2 Hepatoma Cell Line.
HepG2 cells were transiently transfected with an expression plasmids encoding hPPARα, hPPARβ or mPPARγ chimeric receptors and a reporter containing the yeast upstream activating sequence (UAS) upstream of the viral E1B promoter controlling a luciferase reporter gene. In addition, the plasmid pRSVβ-gal was used to control for transfection efficiency. HepG2 cells were grown in DMEM supplemented with 10% FBS and 1 μM non-essential amino acid. On the first day, cells were split into 100 mm dishes at 2.5×10^6/dish and incubated overnight at 37° C./5% CO2. On the second day the cells were transiently transfected with plasmid DNA encoding a chimeric receptor, the luciferase reporter gene; and β-gal. For each 100 mm dish, 15 μg of lucifease reporter (PG5E1b) DNA, 15 μg of Gal4-PPAR chimeric receptor DNA, and 1.5 μg of β-gal plasmid DNA were mixed with 1.4 ml of opti-MEM in the tube. 28 μl of LipoFectamine-2000 reagent was added to 1.4 ml of opti-MEM in the tube, and incubate for 5 min at RT. The diluted Lipofectamine-2000 reagent was combined with the DNA mixture, and incubate for 20 min at RT. After fresh medium was added to each 100 mm dish of cells, 2.8 ml of Lipofectamine2000-DNA mixture was added dropwise to the 100 mm dish containing 14 ml of medium, and incubate 37° C. overnight. On day three cells were trypsinized off the 100 mm dishes and re-plated on 96 well plates. Cells were plated at 2.5×10^4 cells per well in 150 μl of media and 50 μl of compound diluted by media was added. The test compound added were in the range from 50 μM to 50 pM. After addition of compounds, the plates were incubated at 37° C. for 24 hours. Subsequently cells were washed with once with 100 μl of PBS, lysed, and processed for measuring luciferase and β-gal activity using Dual-Light luciferase kit from Tropix ®, according to the manufacturer's recommendations, on an EG&G Bethold MicroLumat LB96P luminometer. EC50 values were obtained using the GraphPad Prism™ program.

[2] = Hep G2-hBeta EC50, 24 hours incubation, read-out: EC50β nM (Group)

Row | SMILES | melting point | EC50 [1, 2] [nM] | EC50 [1] [nM]
1 | Cc1cc(SCc2ccc(-c3ccccc3)cc2)ccc1OCC(=O)O [Example 2, [4-(Biphenyl-4-ylmethylsulfanyl)-2-methyl-phenoxy]-acetic acid] | 138 °C |  | 
2 | COc1cc(OCC(=O)O)c(C)cc1SCc1ccc(-c2c(C)cc(C)cc2C)cc1 [Example 5, [5-Methoxy-2-methyl-4-(2′,4′,6′-trimethyl-biphenyl-4-ylmethylsulfanyl)-phenoxy]-acetic acid] | 141 °C | 1000 to 2000 | 
3 | O=C(O)COc1ccc(SCc2ccc(-c3ccc(C(F)(F)F)cc3)cc2)c2c1CCC2 [Example 12, [7-(4′-Trifluoromethyl-biphenyl-4-ylmethylsulfanyl)-indan-4-yloxy]-acetic acid] | 158 to 159 °C | < 300 | 
4 | Cc1cc(SCc2ccc(OCc3ccccc3)cc2)ccc1OCC(=O)O [Example 13, [4-(4-Benzyloxy-benzylsulfanyl)-2-methyl-phenoxy]-acetic acid] | 120 to 121 °C |  | 
5 | Cc1cc(SCc2ccc(OCc3ccc(C(F)(F)F)cc3)cc2)ccc1OCC(=O)O [Example 15, {2-Methyl-4-[4-(4-trifluoromethyl-benzyloxy)-benzylsulfanyl]-phenoxy}-acetic acid] | 133 °C | < 300 | 
6 | Cc1cc(/C=C/c2ccc(-c3ccc(C(F)(F)F)cc3)cc2)ccc1OCC(=O)O [Example 24, {2-Methyl-4-[2-(4′-trifluoromethyl-biphenyl-4-yl)-vinyl]-phenoxy}-acetic acid] | 243 to 245 °C |  | 
7 | O=C(O)COc1ccc(SCc2ccc(-c3ccc(C(F)(F)F)cn3)cc2)c2c1CCC2 [Example 26, {7-[4-(5-Trifluoromethyl-pyridin-2-yl)-benzylsulfanyl]-indan-4-yloxy}-acetic acid] | 220 °C (dec.) | < 300 | 
8 | Cc1cc(SCc2ccc(-c3ccc(C(F)(F)F)cn3)cc2)c(Cl)cc1OCC(=O)O [Example 37, {5-Chloro-2-methyl-4-[4-(5-trifluoromethyl-pyridin-2-yl)-benzylsulfanyl]-phenoxy}-acetic acid] |  | < 300 | 
9 | COc1cc(OCC(=O)O)c(C)cc1SCc1ccc(-c2ccc(C(F)(F)F)cc2)cc1C [Example 39, [5-Methoxy-2-methyl-4-(3-methyl-4′-trifluoromethyl-biphenyl-4-ylmethylsulfanyl)-phenoxy]-acetic acid] |  | < 300 | 
10 | O=C(O)COc1ccc(SCc2ccc(Cc3ccc(C(F)(F)F)cc3)cc2)c2c1CCC2 [Example 40, {7-[4-(4-trifluoromethyl-benzyl)-benzylsulfanyl]-indan-4-yloxy}-acetic acid] |  | 500 to 1000 | 
11 | Cc1cc(SCc2ccc(Oc3ccccc3)cc2)ccc1OCC(=O)O [Example 47, [2-Methyl-4-(4-phenoxy-benzylsulfanyl)-phenoxy]-acetic acid] |  | > 5000 | 
12 | COc1cc(OCC(=O)O)c(C)cc1S(=O)(=O)Cc1ccc(-c2ccc(C(F)(F)F)cc2)cc1 [Example 50, [5-Methoxy-2-methyl-4-(4′-trifluoromethyl-biphenyl-4-ylmethanesulfonyl)-phenoxy]-acetic acid] |  | 2000 to 5000 | 
13 | COc1cc(OCC(=O)O)c(C)cc1[S+]([O-])Cc1ccc(-c2ccc(C(F)(F)F)cc2)cc1 (centres unmarked) [Example 51, [5-Methoxy-2-methyl-4-(4′-trifluoromethyl-biphenyl-4-ylmethanesulfinyl)-phenoxy]-acetic acid] |  | 2000 to 5000 | 
14 | COc1cc(OCC(=O)O)c(C)cc1SCCc1cn(Cc2ccc(C(F)(F)F)cc2)c2ccccc12 [Example 54, (5-Methoxy-2-methyl-4-{2-[1-(4-trifluoromethyl-benzyl)-1H-indol-3-yl]-ethylsulfanyl}-phenoxy)-acetic acid] |  | 300 to 500 | 
15 | Cc1cc(SCc2ccc(OCc3ccc(Cl)cc3)cc2)ccc1OCC(=O)O [Example 58, {4-[4-(4-Chloro-benzyloxy)-benzylsulfanyl]-2-methyl-phenoxy}-acetic acid] | 164 °C | 2000 to 5000 | 
16 | Cc1cc(SCc2ccc(OCc3ccccn3)cc2)ccc1OCC(=O)O [Example 60, {2-Methyl-4-[4-(pyridine-2-ylmethoxy)-benzylsulfanyl]-phenoxy}-acetic acid] | 150 °C | > 5000 | 

Row | SMILES | melting point | EC50 [1, 2] [nM] | EC50 [1] [nM]
17 | Cc1cc(SCc2ccc(OCc3ccc(C(F)(F)F)cc3)cc2)c(Cl)cc1OCC(=O)O [Example 61, {5-Chloro-2-methyl-4-[4-(4-trifluoromethyl-benzyloxy)-benzylsulfanyl]-phenoxy}-acetic acid] | 142 to 143 °C | 300 to 500 | 
18 | Cc1cc(SCc2ccc(OCc3ccc(C(F)(F)F)cc3)cc2)c2c(c1OCC(=O)O)CCC2 [Example 64, {5-Methyl-7-[4-(4-trifluoromethyl-benzyloxy)-benzylsulfanyl]-indan-4-yloxy}-acetic acid] | 165 to 167 °C | > 5000 | 
19 | O=C(O)COc1ccc(SCc2ccc(OCc3ccc(F)cc3)cc2)c2c1CCC2 [Example 65] | 153 to 155 °C | > 5000 | 
20 | O=C(O)COc1ccc(SCc2ccc(OCc3ccc(F)cc3F)cc2)c2c1CCC2 [Example 66, {7-[4-(2,4-Difluoro-benzyloxy)-benzylsulfanyl]-indan-4-yloxy}-acetic acid] | 158 to 160 °C | > 5000 | 
21 | CC(C)(C)c1ccc(COc2ccc(CSc3ccc(OCC(=O)O)c4c3CCC4)cc2)cc1 [Example 67, {7-[4-(4-tert-Butyl-benzyloxy)-benzylsulfanyl]-indan-4-yloxy}-acetic acid] | 152 to 153 °C |  | < 300
22 | COc1ccc(COc2ccc(CSc3ccc(OCC(=O)O)c4c3CCC4)cc2)cc1 [Example 68, {7-[4-(4-Methoxy-benzyloxy)-benzylsulfanyl]-indan-4-yloxy}-acetic acid] | 183 to 185 °C | 1000 to 2000 | 
23 | O=C(O)COc1ccc(SCc2ccc(OCc3ccccc3)cc2)c2c1CCC2 [Example 69, [7-(4-Benzyloxy-benzylsulfanyl)-indan-4-yloxy]-acetic acid] | 145 to 147 °C | 2000 to 5000 | 
24 | O=C(O)COc1ccc(SCc2ccc(OCc3ccc(Cl)cc3)cc2)c2c1CCC2 [Example 70, {7-[4-(4-Chloro-benzyloxy)-benzylsulfanyl]-indan-4-yloxy}-acetic acid] | 170 to 172 °C | 500 to 1000 | 
25 | O=C(O)COc1ccc(SCc2ccc(OCc3cc(Cl)ccc3Cl)cc2)c2c1CCC2 [Example 71, {7-[4-(2,5-Dichloro-benzyloxy)-benzylsulfanyl]-indan-4-yloxy}-acetic acid] | 158 to 160 °C | 500 to 1000 | 
26 | O=C(O)COc1ccc(SCc2ccc(OCc3ccc(Cl)c(Cl)c3)cc2)c2c1CCC2 [Example 72, {7-[4-(3,4-Dichloro-benzyloxy)-benzylsulfanyl]-indan-4-yloxy}-acetic acid] | 168 °C | 1000 to 2000 | 
27 | O=C(O)COc1ccc(SCc2ccc(-c3ccc(C(F)(F)F)cn3)cc2)c2c1CCCO2 [Example 86, {8-[4-(5-Trifluoromethyl-pyridine-2-yl)-benzylsulfanyl]-chroman-5-yloxy}-acetic acid] | 178 to 179 °C |  | 
28 | O=C(O)COc1ccc(SCc2cc(-c3ccc(C(F)(F)F)cc3)on2)c2c1CCCO2 [Example 94, {8-[5-(4-Trifluoromethyl-phenyl)-isoxazol-3-ylmethylsulfanyl]-chroman-5-yloxy}-acetic acid] | 171 to 173 °C |  | 
29 | O=C(O)COc1ccc(SCc2cc(-c3ccc(Cl)cc3)on2)c2c1CCCO2 [Example 95, {8-[5-(4-Chloro-phenyl)-isoxazol-3-ylmethylsulfanyl]-chroman-5-yloxy}-acetic acid] | 181 to 183 °C |  | 
30 | Cc1cc(SCc2cc(-c3ccc(Cl)cc3)on2)ccc1OCC(=O)O [Example 96, {4-[5-(4-Chloro-phenyl)-isoxazol-3-ylmethylsulfanyl]-2-methyl-phenoxy}-acetic acid] | 152 to 153 °C |  | 
31 | O=C(O)COc1ccc(SCc2cc(-c3ccc(C(F)(F)F)cc3)on2)c2c1CCCC2 [Example 102, {4-[5-(4-trifluoromethyl-phenyl)-isoxazol-3-ylmethylsulfanyl]-5,6,7,8-tetrahydro-naphthalen-1-yloxy}-acetic acid] | 167 to 170 °C |  | 
